Test results taken from US20240316022A1 (TYRA BIOSCIENCES, INC., priority 2021, published 2024).

Tests used:
[1] = molecular target: T1, FGFR2 (Homo sapiens, UniProt P21802); assay: Kinase binding assay (kinase-tagged T7 phage, qPCR), Kd; conditions: read-out: FGFR2 (Kd nM)
T1 construct: made in house; host or cells: E. coli derived from BL21, infected with T7 phage

[2] = molecular target: T2, FGFR1 (Homo sapiens, UniProt P11362); assay: as above; conditions: read-out: FGFR1 (Kd nM)
T2 construct: made in house; host or cells: E. coli derived from BL21, infected with T7 phage

[3] = molecular target: T3, BCR-FGFR4 Ba/F3 (Homo sapiens, UniProt P22455); assay: Ba/F3 cell viability assay (CellTiter-Glo 2.0); assay type: cell-based; conditions: Ba/F3 BCR-FGFR4 cells, 48 hours
T3 construct: host or cells: Ba/F3; the other entry of the earlier key: BCR (P11274, Breakpoint cluster region protein)
Text: (§1) Experimental Purpose: Recombinant kinase fusions are transduced into parental Ba/F3, which becomes dependent upon this constitutive kinase activity for IL3-independent survival. Inhibition of kinase activity leads to cell death, which is monitored using CellTiter-Glo® 2.0 (Promega) which measures intracellular ATP concentration that in turn serves as a marker for viability. BCR-FGFR4 Ba/F3, BCR-FGFR1 Ba/F3 and FGFR3-BAIAP2L1 Ba/F3 were obtained from Advanced Cellular Dynamics (Seattle, WA)
(§2) Cell Viability Assay Procedure: Cell Titer-Glo® 2.0 Luminescent cell viability assay reagent was purchased from Promega (Madison, WI). BCR-FGFR4 Ba/F3, BCR-FGFR1 Ba/F3 and FGFR3-BAIAP2L1 Ba/F3 cells were cultured in RPMI1640 media supplemented with 10% fetal bovine serum. Cultures were maintained at 37° C. in a humidified atmosphere of 5% CO2 and 95% air.
(§3) Cells were plated in 96-well clear bottom/white plates (Corning #3903) at 10,000 cells/well in 100 μl of media, incubated overnight. The next day, test compound DMSO stock solutions were made at 10 mM and 2 μM final concentration. Compounds were then added to cells in a 9-dose, 10-fold dilution series starting at 30 μM with an HP 300e Digital Dispenser (each dose was applied in triplicate). DMSO was backfilled to each well up to 301 nL total volume of test compound+DMSO, and a total of 301 nL DMSO was added to a control/no test compound well in triplicate. The cells in cell culture plates were incubated with the compounds at 37° C. and 5% CO2 for 48 hours. Then 50 μl of Cell Titer Glo 2.0 reagent was added to each well of the cell culture plates. The contents were covered from light and mixed on an orbital shaker at room temperature for 10 min. Luminescence was recorded by a Synergy H1 Microplate Reader (Biotek, Winooski, VT). Cells were assessed as a percentage of DMSO only treated control cells. Curves were plotted and IC50 values were calculated using the GraphPad Prism 8 program based on a sigmoidal dose-response equation (4 parameter).

[4] = molecular target: T4, FGFR3-BAIAP2L1 Ba/F3 (Homo sapiens, UniProt P22607); assay: Ba/F3 cell viability assay (CellTiter-Glo 2.0); assay type: cell-based; conditions: Ba/F3 FGFR3-BAIAP2L1 cells, 48 hours
T4 construct: host or cells: Ba/F3; the other entry of the earlier key: BAIAP2L1 (Q9UHR4, BAR/IMD domain-containing adapter protein 2-like 1)
Text: as §1, §2, §3

[5] = molecular target: T5, BCR-FGFR1 Ba/F3 (Homo sapiens, UniProt P11362); assay: Ba/F3 cell viability assay (CellTiter-Glo 2.0); assay type: cell-based; conditions: Ba/F3 BCR-FGFR1 cells, 48 hours
T5 construct: host or cells: Ba/F3; the other entry of the earlier key: BCR (P11274, Breakpoint cluster region protein)
Text: as §1, §2, §3

[6] = molecular target: T6, FGFR4 (Homo sapiens, UniProt P22455); assay: Kinase binding assay (kinase-tagged T7 phage, qPCR), Kd; conditions: read-out: FGFR4 (Kd nM)
T6 construct: made in house; host or cells: E. coli derived from BL21, infected with T7 phage

[7] = molecular target: T7, FGFR3 (Homo sapiens, UniProt P22607); assay: as above; conditions: read-out: FGFR3 (Kd nM)
T7 construct: made in house; host or cells: E. coli derived from BL21, infected with T7 phage
T7 sequence (P22607 23-806): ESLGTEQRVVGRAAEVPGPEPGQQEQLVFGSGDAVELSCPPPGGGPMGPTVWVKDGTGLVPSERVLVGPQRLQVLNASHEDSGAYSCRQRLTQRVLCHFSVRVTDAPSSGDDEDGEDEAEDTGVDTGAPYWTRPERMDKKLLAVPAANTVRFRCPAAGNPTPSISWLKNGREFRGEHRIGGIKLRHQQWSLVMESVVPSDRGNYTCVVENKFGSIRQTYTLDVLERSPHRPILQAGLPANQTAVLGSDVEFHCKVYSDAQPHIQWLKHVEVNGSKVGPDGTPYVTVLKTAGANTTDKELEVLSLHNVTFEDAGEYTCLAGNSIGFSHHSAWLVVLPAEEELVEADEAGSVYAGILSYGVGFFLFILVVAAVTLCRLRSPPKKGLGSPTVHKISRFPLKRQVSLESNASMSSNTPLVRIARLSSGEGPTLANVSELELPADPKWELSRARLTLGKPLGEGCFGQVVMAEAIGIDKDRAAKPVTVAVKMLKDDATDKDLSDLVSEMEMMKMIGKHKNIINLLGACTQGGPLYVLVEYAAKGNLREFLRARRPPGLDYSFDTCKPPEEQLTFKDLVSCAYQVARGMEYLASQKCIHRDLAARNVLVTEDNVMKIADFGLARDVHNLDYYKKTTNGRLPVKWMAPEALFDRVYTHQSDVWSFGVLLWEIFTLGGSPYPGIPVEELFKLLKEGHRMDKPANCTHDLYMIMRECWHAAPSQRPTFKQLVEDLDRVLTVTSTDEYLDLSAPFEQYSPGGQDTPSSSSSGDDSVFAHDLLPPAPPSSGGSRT

T5 sequence (P11362 478-767 limits assumed): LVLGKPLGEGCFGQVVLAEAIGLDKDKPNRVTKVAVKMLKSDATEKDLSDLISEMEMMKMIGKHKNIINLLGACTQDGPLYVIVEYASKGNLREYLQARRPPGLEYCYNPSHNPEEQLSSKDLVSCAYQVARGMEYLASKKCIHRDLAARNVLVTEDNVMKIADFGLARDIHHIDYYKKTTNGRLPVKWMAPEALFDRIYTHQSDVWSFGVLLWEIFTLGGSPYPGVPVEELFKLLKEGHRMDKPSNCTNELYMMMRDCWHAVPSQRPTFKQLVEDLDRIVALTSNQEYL
T4 sequence (P22607 397-758 limits assumed): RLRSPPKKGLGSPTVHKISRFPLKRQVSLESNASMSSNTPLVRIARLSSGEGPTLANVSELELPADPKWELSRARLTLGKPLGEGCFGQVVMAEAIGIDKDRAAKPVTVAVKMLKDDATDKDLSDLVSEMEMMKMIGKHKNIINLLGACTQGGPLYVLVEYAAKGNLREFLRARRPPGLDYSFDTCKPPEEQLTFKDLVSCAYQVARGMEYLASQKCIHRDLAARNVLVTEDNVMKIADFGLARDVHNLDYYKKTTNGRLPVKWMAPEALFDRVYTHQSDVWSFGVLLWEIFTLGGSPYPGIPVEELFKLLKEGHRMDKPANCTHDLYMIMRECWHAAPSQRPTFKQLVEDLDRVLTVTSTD
T6 sequence (P22455 22-802): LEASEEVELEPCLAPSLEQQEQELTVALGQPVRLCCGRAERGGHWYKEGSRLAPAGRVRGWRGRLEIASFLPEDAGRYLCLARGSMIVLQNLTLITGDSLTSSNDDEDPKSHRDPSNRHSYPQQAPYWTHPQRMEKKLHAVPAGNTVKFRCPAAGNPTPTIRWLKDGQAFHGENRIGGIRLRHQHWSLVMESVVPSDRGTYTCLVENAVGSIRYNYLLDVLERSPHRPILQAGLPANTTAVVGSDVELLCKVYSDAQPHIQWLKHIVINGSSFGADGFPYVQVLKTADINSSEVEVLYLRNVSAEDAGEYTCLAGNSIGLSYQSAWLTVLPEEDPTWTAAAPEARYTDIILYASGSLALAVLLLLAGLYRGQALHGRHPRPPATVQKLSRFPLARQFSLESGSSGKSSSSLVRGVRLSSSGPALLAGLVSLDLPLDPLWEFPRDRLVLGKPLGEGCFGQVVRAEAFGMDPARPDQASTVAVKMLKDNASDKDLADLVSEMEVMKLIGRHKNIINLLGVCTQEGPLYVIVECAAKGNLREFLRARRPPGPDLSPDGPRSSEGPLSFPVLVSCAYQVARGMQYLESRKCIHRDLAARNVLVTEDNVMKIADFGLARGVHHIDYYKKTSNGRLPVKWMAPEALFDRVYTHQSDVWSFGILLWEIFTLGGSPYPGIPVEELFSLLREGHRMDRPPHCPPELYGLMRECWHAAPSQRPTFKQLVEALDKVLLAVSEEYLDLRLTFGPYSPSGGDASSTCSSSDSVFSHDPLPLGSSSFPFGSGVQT
T3 sequence (P22455 467-755 limits assumed): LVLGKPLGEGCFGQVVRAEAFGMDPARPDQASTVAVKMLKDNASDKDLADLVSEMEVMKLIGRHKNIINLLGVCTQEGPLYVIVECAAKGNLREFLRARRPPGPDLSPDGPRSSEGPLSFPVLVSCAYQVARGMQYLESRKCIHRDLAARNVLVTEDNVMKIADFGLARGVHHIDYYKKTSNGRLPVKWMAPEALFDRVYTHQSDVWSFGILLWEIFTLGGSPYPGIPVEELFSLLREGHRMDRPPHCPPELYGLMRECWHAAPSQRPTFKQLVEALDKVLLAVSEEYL
T1 sequence (P21802 22-821): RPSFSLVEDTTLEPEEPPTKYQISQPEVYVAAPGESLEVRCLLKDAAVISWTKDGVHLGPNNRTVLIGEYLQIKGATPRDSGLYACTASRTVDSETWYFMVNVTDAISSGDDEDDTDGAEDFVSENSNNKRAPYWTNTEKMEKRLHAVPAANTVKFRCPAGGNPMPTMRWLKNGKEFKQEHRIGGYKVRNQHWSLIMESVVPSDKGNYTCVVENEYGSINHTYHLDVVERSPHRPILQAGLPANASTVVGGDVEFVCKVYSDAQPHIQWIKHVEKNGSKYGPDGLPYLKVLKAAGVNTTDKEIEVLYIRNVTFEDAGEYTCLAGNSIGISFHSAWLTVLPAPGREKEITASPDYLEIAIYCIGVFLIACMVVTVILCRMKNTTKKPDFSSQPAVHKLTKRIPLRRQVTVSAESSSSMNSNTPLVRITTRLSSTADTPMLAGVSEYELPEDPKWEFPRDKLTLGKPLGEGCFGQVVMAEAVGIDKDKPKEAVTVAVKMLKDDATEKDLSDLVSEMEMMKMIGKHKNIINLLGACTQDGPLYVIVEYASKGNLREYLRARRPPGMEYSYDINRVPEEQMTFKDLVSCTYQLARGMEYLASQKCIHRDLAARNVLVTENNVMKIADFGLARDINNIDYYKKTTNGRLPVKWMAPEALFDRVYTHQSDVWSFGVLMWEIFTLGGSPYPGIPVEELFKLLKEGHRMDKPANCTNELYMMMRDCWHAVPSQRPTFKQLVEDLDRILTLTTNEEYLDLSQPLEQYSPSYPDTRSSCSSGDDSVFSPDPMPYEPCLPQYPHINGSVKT
T2 sequence (P11362 22-822): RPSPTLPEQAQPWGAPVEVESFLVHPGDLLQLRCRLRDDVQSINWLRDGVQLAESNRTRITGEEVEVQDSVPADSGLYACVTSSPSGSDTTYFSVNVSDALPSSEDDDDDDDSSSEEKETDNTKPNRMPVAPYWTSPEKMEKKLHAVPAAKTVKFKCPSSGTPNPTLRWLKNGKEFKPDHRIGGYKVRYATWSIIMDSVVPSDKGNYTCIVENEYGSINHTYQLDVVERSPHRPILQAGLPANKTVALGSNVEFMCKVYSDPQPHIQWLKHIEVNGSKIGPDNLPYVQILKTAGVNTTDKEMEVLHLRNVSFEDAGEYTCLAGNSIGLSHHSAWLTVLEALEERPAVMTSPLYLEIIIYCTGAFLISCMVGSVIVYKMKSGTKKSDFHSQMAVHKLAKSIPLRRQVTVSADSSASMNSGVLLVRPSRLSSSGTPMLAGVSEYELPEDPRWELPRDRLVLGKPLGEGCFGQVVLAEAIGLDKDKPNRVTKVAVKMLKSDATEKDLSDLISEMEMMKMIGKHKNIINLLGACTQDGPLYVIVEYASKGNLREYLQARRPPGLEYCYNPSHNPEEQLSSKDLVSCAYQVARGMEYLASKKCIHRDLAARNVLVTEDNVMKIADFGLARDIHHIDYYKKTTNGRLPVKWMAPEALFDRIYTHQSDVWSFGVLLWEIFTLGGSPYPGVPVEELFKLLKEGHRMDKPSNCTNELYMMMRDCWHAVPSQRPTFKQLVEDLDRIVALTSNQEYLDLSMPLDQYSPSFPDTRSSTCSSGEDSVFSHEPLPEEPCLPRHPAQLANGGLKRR

Row | SMILES | Kd [1] | Kd [2] | Kd [6] | Kd [7] | IC50 [3] | IC50 [4] | IC50 [5]
1 | C=CC(=O)N1CCOc2ncc(-c3n[nH]c4ccc(O[C@H](C)c5c(Cl)cncc5Cl)cc34)cc21 [Example 25, 1-[7-[5-[(1R)-1-(3,5-dichloro-4-pyridyl)ethoxy]-1H-indazol-3-yl]-2,3-dihydro-pyrido[2,3-b][1,4]oxazin-1-yl]prop-2-en-1-one] | > 1000 nM | > 1000 nM | 0.1 to 100 nM | > 1000 nM | 0.1 to 100 nM | 250 to 1000 nM | > 1000 nM
2 | C[C@@H](Oc1ccc2[nH]nc(-c3cnc(N)c(OC(F)F)c3)c2c1)c1c(Cl)cncc1Cl [Example 28, 5-[5-[(1R)-1-(3,5-dichloro-4-pyridyl)ethoxy]-1H-indazol-3-yl]-3-(difluoromethoxy)pyridin-2-amine] | > 1000 nM | 250 to 1000 nM | 0.1 to 100 nM | 250 to 1000 nM | 250 to 1000 nM | 250 to 1000 nM | > 1000 nM
3 | Cc1nccc(C(=O)N2CCOc3ncc(-c4n[nH]c5ccc(O[C@H](C)c6c(Cl)cncc6Cl)cc45)cc32)n1 [Example 40, [7-[5-[(1R)-1-(3,5-dichloro-4-pyridyl)ethoxy]-1H-indazol-3-yl]-2,3-dihydro-pyrido[2,3-b][1,4]oxazin-1-yl]-(2-methyl-pyrimidin-4-yl)methanone] | 250 to 1000 nM | 250 to 1000 nM | 0.1 to 100 nM | 0.1 to 100 nM | 250 to 1000 nM | – | –
4 | Cc1ccc(C(=O)N2CCOc3ncc(-c4n[nH]c5ccc(O[C@H](C)c6c(Cl)cncc6Cl)cc45)cc32)cn1 [Example 41] | 100 to 250 nM | 0.1 to 100 nM | 0.1 to 100 nM | 0.1 to 100 nM | 250 to 1000 nM | – | –
5 | Cc1ncccc1C(=O)N1CCOc2ncc(-c3n[nH]c4ccc(O[C@H](C)c5c(Cl)cncc5Cl)cc34)cc21 [Example 42, [7-[5-[(1R)-1-(3,5-dichloro-4-pyridyl)ethoxy]-1H-indazol-3-yl]-2,3-dihydro-pyrido[2,3-b][1,4]oxazin-1-yl]-(2-methyl-3-pyridyl)methanone] | > 1000 nM | > 1000 nM | 0.1 to 100 nM | 100 to 250 nM | > 1000 nM | – | –
6 | COc1cc(NC(=O)c2ccccn2)cc(-c2n[nH]c3ccc(O[C@H](C)c4c(Cl)cncc4Cl)cc23)c1 [Example 45, N-[3-[5-[(1R)-1-(3,5-dichloro-4-pyridyl)ethoxy]-1H-indazol-3-yl]-5-methoxy-phenyl]pyridine-2-carboxamide] | > 1000 nM | 250 to 1000 nM | 0.1 to 100 nM | 0.1 to 100 nM | 250 to 1000 nM | – | –

Continued, in another order:

Row | Kd [1] | Kd [2] | Kd [6] | Kd [7] | SMILES | IC50 [3] | IC50 [4] | IC50 [5]
7 | > 1000 nM | > 1000 nM | 100 to 250 nM | 250 to 1000 nM | C[C@@H](Oc1ccc2[nH]nc(-c3cnc4c(c3)N(CCO)CCO4)c2c1)c1c(Cl)cncc1Cl [Example 49, 2-[7-[5-[(1R)-1-(3,5-dichloro-4-pyridyl)ethoxy]-1H-indazol-3-yl]-2,3-dihydro-pyrido[2,3-b][1,4]oxazin-1-yl]ethanol] | 250 to 1000 nM | – | –
8 | 0.1 to 100 nM | 250 to 1000 nM | 0.1 to 100 nM | 0.1 to 100 nM | COc1cc(C#N)cc(-c2n[nH]c3ccc(O[C@H](C)c4c(C)cnnc4C)cc23)c1 [Example 53, 3-[5-[(1R)-1-(3,5-dimethylpyridazin-4-yl)ethoxy]-1H-indazol-3-yl]-5-methoxy-benzonitrile] | 250 to 1000 nM | – | –
9 | 0.1 to 100 nM | 0.1 to 100 nM | 0.1 to 100 nM | 0.1 to 100 nM | Cc1cnnc(C)c1[C@@H](C)Oc1ccc2[nH]nc(-c3cc(C#N)cc(OCCO)c3)c2c1 [Example 72, 3-[5-[(1R)-1-(3,5-dimethylpyridazin-4-yl)ethoxy]-1H-indazol-3-yl]-5-(2-hydroxyethoxy)benzonitrile] | 100 to 250 nM | 0.1 to 100 nM | 250 to 1000 nM
10 | 0.1 to 100 nM | 0.1 to 100 nM | 0.1 to 100 nM | 0.1 to 100 nM | Cc1cc(C#N)cc(-c2n[nH]c3ccc(O[C@H](C)c4c(C)cnnc4C)cc23)c1 [Example 79, 3-[5-[(1R)-1-(3,5-dimethylpyridazin-4-yl)ethoxy]-1H-indazol-3-yl]-5-methyl-benzonitrile] | 250 to 1000 nM | 0.1 to 100 nM | 250 to 1000 nM
